Experimental data taken from US5859026A, “Quinoline carboxylic acid” (priority 1995, dated 1999).
≈ marks a conversion by molar mass, not a printed value.

Legend:
[1] = system: male ICR mice; assay: Induction of convulsions, intraperitoneal (i.p.) administration; assay type: in vivo, mouse; conditions: 100 mg/kg i.p., 30 minutes after oral fenbufen 100 mg/kg; for Induction of convulsion, i.p. (number of mice with convulsions): animals with convulsions/animals tested
Text: 4. The induction of convulsions
1) Intraperitoneal (i.p.) administration

[2] = system: Chinese hamster lung cell line (CHL cell); assay: Chromosomal aberration test; assay type: cell-based; conditions: 100 μg/ml, 6 hours treatment at 37° C., then 18 hours in fresh medium
Method: 2. Chromosomal aberration test
The experiments were carried out using a Chinese hamster lung cell line (CHL cell). The test compounds prepared were added to cultured cells, and cultivation was continued for 6 hours at 37° C. in 5% CO2. 2-(2-furyl)-3-(5-nitro-2-furyl) acrylamide was used as a positive control. After the cultivation for 6 hours, the cells were washed and added with fresh medium, and then cultivation was further continued for 18 hours. Colcemide solution was added to the culture 2 hours before the completion of the cultivation, and the chromosomal specimens were prepared after the cultivation was completed. Incidence rates of aberration cells were measured at the treatments with 100 μg/ml of the test compounds.

[3] = system: Male Wistar rats; assay: Induction of convulsions, intracerebroventricular (i.c.v.) administration; assay type: in vivo, rat; conditions: 30 minutes after i.p. fenbufen 50 mg/kg, observed at least 4 hours; for Induction of convulsion, i.c.v. (number of rats with convulsions): animals with convulsions/animals tested
Method: 2) Intracerebroventricular (i.c.v.) administration
Male Wistar rats (weighing 180-220 g) were anesthetized with sodium pentobarbital at 45 mg/kg, i.p., and then the head of the rat was fixed in a stereotaxic apparatus. A stainless steel guide cannula for intracerebroventricular injectionin in 0.6 mm diameter was implanted as a guide cannula so as to be positioned at 1.5 mm above the left lateral cerebroventricle (A:6.2,R:1.0,H:+1.0) according to the brain atlas of De Groot (1959). The guide cannula was fixed by using a dental cement, and then closed with a stainless steel stylet in 0.3 mm diameter. Potassium penicillin G (10,000 units) were subcutaneously administered to prevent an infection. The rats were subjected to the experiments after recovery time for several days from the surgery.
For the measurement of the induction of convulsions, 50 mg/kg of fenbufen was intraperitoneally administered, and then the test compound was intracerebroventricularly administered after 30 minutes from the administration of fenbufen by means of a stainless steel cannula in 0.3 mm diameter that was connected with a polyethylene catheter and adjusted so as to be 1.5 mm longer than the guide cannula for an administration at an accurate position of cerebroventricle (H:+1.0). […] After the completion of the above experiment, the administered positions were confirmed by intraventricularly injecting 10 μl of 1% Evans blue to each of the rats, and followed by sectioning the brains.

[4] = system: Male Hartley guinea pigs; assay: Phototoxicity; assay type: in vivo, guinea pig; conditions: 10 mg/kg intravenous, UV exposure 90 minutes, observed 24 hours after irradiation; animals with erythemas/animals tested
Method: Male Hartley guinea pigs were intravenously administered with test compounds at a dose of 10 mg/kg, and then immediately exposed to WVA on their backs for 90 minutes. Erythemas on the UV irradiated skin were observed 24 hours after the irradiation.

[5] = system: E. colacae 963; assay: Antibacterial activity (MIC), standard strain; assay type: cell-based; conditions: Enterobacter cloacae; standard strain E. colacae 963, Gram -, 10^6 viable cells per ml; read-out: minimum inhibitory concentration (MIC)
Method: (§1) 1. Antibacterial spectrum against standard strains and clinically isolated strains
Antibacterial activities (minimum inhibitory concentration: MIC) were determined according to the standard method of the Japan Society of Chemotherapy (Chemotherapy (Tokyo), 29 (1), 76, 1981) by using standard strains and strains isolated from patients of infectious disease (clinically isolated strains) and applying 10^6 viable cells per ml. […].

[6] = system: A. calcoaceticus HNR916; assay: Antibacterial activity (MIC), clinically isolated strain; assay type: cell-based; conditions: Acinetobacter calcoaceticus; clinical isolate A. calcoaceticus HNR916, Gram -, 10^6 viable cells per ml; read-out: minimum inhibitory concentration (MIC)
Text: as §1

[7] = system: E. faecalis HPC984; assay: as above; assay type: cell-based; conditions: Enterococcus faecalis; clinical isolate E. faecalis HPC984, Gram +, 10^6 viable cells per ml; read-out: minimum inhibitory concentration (MIC)
Text: as §1

[8] = system: K. pneumoniae HNR858; assay: as above; assay type: cell-based; conditions: Klebsiella pneumoniae; clinical isolate K. pneumoniae HNR858, Gram -, 10^6 viable cells per ml; read-out: minimum inhibitory concentration (MIC)
Text: as §1

[9] = system: E. faecalis HPC975; assay: as above; assay type: cell-based; conditions: Enterococcus faecalis; clinical isolate E. faecalis HPC975, Gram +, 10^6 viable cells per ml; read-out: minimum inhibitory concentration (MIC)
Text: as §1

[10] = system: S. marcescens HNR1792; assay: as above; assay type: cell-based; conditions: Serratia marcescens; clinical isolate S. marcescens HNR1792, Gram -, 10^6 viable cells per ml; read-out: minimum inhibitory concentration (MIC)
Text: as §1

[11] = system: E. cloacae HNR1941; assay: as above; assay type: cell-based; conditions: Enterobacter cloacae; clinical isolate E. cloacae HNR1941, Gram -, 10^6 viable cells per ml; read-out: minimum inhibitory concentration (MIC)
Text: as §1

[12] = system: S. marcescens HNR1544; assay: as above; assay type: cell-based; conditions: Serratia marcescens; clinical isolate S. marcescens HNR1544, Gram -, 10^6 viable cells per ml; read-out: minimum inhibitory concentration (MIC)
Text: as §1

[13] = system: E. faecalis HPC948; assay: as above; assay type: cell-based; conditions: Enterococcus faecalis; clinical isolate E. faecalis HPC948, Gram +, 10^6 viable cells per ml; read-out: minimum inhibitory concentration (MIC)
Text: as §1

[14] = system: A. calcoaceticus HNR939; assay: as above; assay type: cell-based; conditions: Acinetobacter calcoaceticus; clinical isolate A. calcoaceticus HNR939, Gram -, 10^6 viable cells per ml; read-out: minimum inhibitory concentration (MIC)
Text: as §1

[15] = system: S. aureusHPC292; assay: as above; assay type: cell-based; conditions: Staphylococcus aureus, read-out: minimum inhibitory concentration (MIC)
Text: as §1

[16] = system: S. aureus HPC308; assay: as above; assay type: cell-based; conditions: Staphylococcus aureus; clinical isolate S. aureus HPC308, Gram +, 10^6 viable cells per ml; read-out: minimum inhibitory concentration (MIC)
Text: as §1

[17] = system: K. pneumoniae HNR828; assay: as above; assay type: cell-based; conditions: Klebsiella pneumoniae; clinical isolate K. pneumoniae HNR828, Gram -, 10^6 viable cells per ml; read-out: minimum inhibitory concentration (MIC)
Text: as §1

[18] = system: E. cloacae HNR1939; assay: as above; assay type: cell-based; conditions: Enterobacter cloacae; clinical isolate E. cloacae HNR1939, Gram -, 10^6 viable cells per ml; read-out: minimum inhibitory concentration (MIC)
Text: as §1

[19] = system: S. aureus HPC527; assay: as above; assay type: cell-based; conditions: Staphylococcus aureus; clinical isolate S. aureus HPC527, Gram +, 10^6 viable cells per ml; read-out: minimum inhibitory concentration (MIC)
Text: as §1

[20] = system: E. cloacae HNR1946; assay: as above; assay type: cell-based; conditions: Enterobacter cloacae; clinical isolate E. cloacae HNR1946, Gram -, 10^6 viable cells per ml; read-out: minimum inhibitory concentration (MIC)
Text: as §1

[21] = system: A. calcoaceticus HNR904; assay: as above; assay type: cell-based; conditions: Acinetobacter calcoaceticus; clinical isolate A. calcoaceticus HNR904, Gram -, 10^6 viable cells per ml; read-out: minimum inhibitory concentration (MIC)
Text: as §1

[22] = system: K. pneumoniae HNR869; assay: as above; assay type: cell-based; conditions: Klebsiella pneumoniae; clinical isolate K. pneumoniae HNR869, Gram -, 10^6 viable cells per ml; read-out: minimum inhibitory concentration (MIC)
Text: as §1

[23] = system: S. marcescens HNR1767; assay: as above; assay type: cell-based; conditions: Serratia marcescens; clinical isolate S. marcescens HNR1767, Gram -, 10^6 viable cells per ml; read-out: minimum inhibitory concentration (MIC)
Text: as §1

[24] = system: K. pneumoniae PCI-602; assay: Antibacterial activity (MIC), standard strain; assay type: cell-based; conditions: Klebsiella pneumoniae, PCI602; standard strain K. pneumoniae PCI-602, Gram -, 10^6 viable cells per ml; read-out: minimum inhibitory concentration (MIC)
Text: as §1

[25] = system: S. aureus FDA 209P JC-1; assay: Antibacterial activity (MIC), standard strain; assay type: cell-based; conditions: Staphylococcus aureus, FDA209P; standard strain S. aureus FDA 209P JC-1, Gram +, 10^6 viable cells per ml; read-out: minimum inhibitory concentration (MIC)
Text: as §1

[26] = system: E. coli NIHJ JC-2; assay: Antibacterial activity (MIC), standard strain; assay type: cell-based; conditions: Escherichia coli, NIHJJC2; standard strain E. coli NIHJ JC-2, Gram -, 10^6 viable cells per ml; read-out: minimum inhibitory concentration (MIC)
Text: as §1

[27] = system: S. marcescens IAM 1184; assay: Antibacterial activity (MIC), standard strain; assay type: cell-based; conditions: Serratia marcescens, IAM1184; standard strain S. marcescens IAM 1184, Gram -, 10^6 viable cells per ml; read-out: minimum inhibitory concentration (MIC)
Text: as §1

O=C(O)c1cn(C2CC2)c2cc(N3CCNCC3)c(F)cc2c1=O [Reference Compound A, Ciprofloxacin]
Induction of convulsions, i.p. (in words) [1]: convulsions were observed in the half of the animals
Induction of convulsion, i.p. (number of mice with convulsions) [1]: 3/6
incidence rate of the aberration cells [2]: less than 10%
Induction of convulsions, i.c.v. (in words) [3]: convulsions were observed in all of the animals (each three animals)
Induction of convulsion, i.c.v. (number of rats with convulsions) [3]: 3/3

Cc1c(N2CCNCC2)c(F)c(N)c2c(=O)c(C(=O)O)cn(C3CC3)c12 [Reference Compound B, 5-amino-1-cyclopropyl-6-fluoro-1,4-dihydro-8-methyl-4-oxo-7-piperazinylquinoline-3-carboxylic acid, reference compound]
Induction of convulsions, i.p. (in words) [1]: inducing actions of convulsions were not noticeable
sedative symptoms considered as precursory symptoms of convulsions, i.p. [1]: All of the animals exhibited sedative symptoms
Induction of convulsion, i.p. (number of mice with convulsions) [1]: 0/6
sedative symptoms considered as precursory symptoms of convulsions, i.p. ([1]; listed as reference compound B): all of the animals exhibited sedative symptoms
Phototoxicity (number of guinea pigs with erythemas) [4]: 0/5
MIC [5]: 0.1 µg/mL (≈ 0.277 µM)
MIC [6]: 0.1 µg/mL (≈ 0.277 µM)
MIC [7]: 0.39 µg/mL (≈ 1.08 µM)
MIC [8]: 0.78 µg/mL (≈ 2.16 µM)
MIC [9]: 12.5 µg/mL (≈ 34.7 µM)
MIC [10]: 6.25 µg/mL (≈ 17.3 µM)
MIC [11]: 25 µg/mL (≈ 69.4 µM)
MIC [12]: 0.1 µg/mL (≈ 0.277 µM)
MIC [13]: 6.25 µg/mL (≈ 17.3 µM)
MIC [14]: 3.13 µg/mL (≈ 8.69 µM)
MIC [15]: 25 µg/mL (≈ 69.4 µM)
MIC [16]: 6.25 µg/mL (≈ 17.3 µM)
MIC [17]: 12.5 µg/mL (≈ 34.7 µM)
MIC [18]: 0.78 µg/mL (≈ 2.16 µM)
MIC [19]: 0.1 µg/mL (≈ 0.277 µM)
MIC [20]: 0.78 µg/mL (≈ 2.16 µM)
MIC [21]: 50 µg/mL (≈ 139 µM)
MIC [22]: 6.25 µg/mL (≈ 17.3 µM)
MIC [23]: 50 µg/mL (≈ 139 µM)
MIC [24]: 0.006 µg/mL (≈ 0.0166 µM)
MIC [25]: 0.1 µg/mL (≈ 0.277 µM)
MIC [26]: 0.05 µg/mL (≈ 0.139 µM)
MIC [27]: 0.2 µg/mL (≈ 0.555 µM)
Induction of convulsions, i.c.v. (in words) [3]: convulsions were observed in all of the animals (each three animals)
Induction of convulsion, i.c.v. (number of rats with convulsions) [3]: 3/3
